Results on three compounds are retold here after patent publication US4966915A, “L-dopa derivatives or their acid addition salts, process for producing same and their use” (priority 1987, dated 1990).

One may read the LD50 as the dose at which mortality reaches 50%. A higher LD50 goes with lower toxicity.

A short description of data set [1]: Blood levels of L-dopa after intravenous administration of drugs (rats). It is filed as in vivo, SD-strain male rats. The procedure:
FIG. 7 illustrates change with time of a blood level of L-dopa in intravenously administering Compound A (o) and L-dopa (.cndot.) to rats.
Measuring blood levels of L-dopa after intravenous administration of drugs (rats)
Seven to eight week-old SD-strain male rats (n=3) were previously fasted for 18 hours. Twenty milligrams of L-dopa as a control drug or the equimolar amount of Compound A was dissolved in a concentration of 10 mg/ml in a physiolosical saline containing 50% propylene glycol, and the resulting solution was intravenously administered to the rats at a dose of 10 mg eq./kg, calculated as L-dopa. Immediately after administration, or 5, 15, 30, 45, 60, 90, 120, 150, 180 or 240 minutes after administration, 120 μl of blood was collected through a carotid cannula intubated in advance three days before the test using a heparin-treated glass capillary. The blood was treated as in Test Example 1 and then measured for blood levels of L-dopa.

A short description of data set [2]: Concentrations of L-dopa in the lumen and tissue of the small intestine by an in situ ligating loop method (rats). The format is in vivo, male rats. Particulars: jejunal loop, with 0.4 mg carbidopa. An excerpt: FIG. 8 illustrates change with time of amounts of Compound A (Δ) and L-dopa (o) after injection of Compound A, and amount of L-dopa (.cndot.) after injection of L-dopa in the lumen of the small intestine of rats according to an in situ ligating loop method.
FIG. 9 illustrates change with time of amounts of Compound A (Δ) and L-dopa (o) after injection of Compound A, and amount of L-dopa (.cndot.) after injection of L-dopa in the tissue of the small intestine of rats according to an in situ ligating loop method.
Measuring concentrations of L-dopa in the lumen and tissue of the small intestine by an in situ ligating loop method (rats)
Eight week-old male rats (n=3) were fasted overnight before the test, and then under ether anesthesia, were incised at the abdomen. An acute loop of 8 cm length was ligated in the jejunum. Compound A (1.47 mg) or 1.00 mg of L-dopa as a control drug was suspended in 0.5 ml of 0.5% sodium carboxymethylcellulose together with 0.4 mg of carbidopa, and the suspension was injected into the loop. The loop was returned in the abdominal cabity and the cut portion was then sewn. After a fixed time, the loop was taken out again and the content in the loop was well washed with a ice-cooled physiological saline. […] In the resulting solutions, the concentration of L-dopa was determined as in Test Example 1 and the concentration of Compound A as follows, respectively. […]

Data set [3] in a line: Acute toxicity, oral administration (mice). The format is in vivo, ddY-strain male mice. Particulars: mortality up to 1 week; for LD50 at 168 h: mouse, in vivo. An excerpt:
Each of the test drugs was suspended in a 0.5% sodium carboxymethylcellulose solution containing 0.1% Tween 80 and orally administered to each of ddY-strain male mice (body weight 24 to 31 g, n=5), and a mortality up to 1 week after administration was observed. Toxicity of test compounds (Compounds A and B) was extremely low. The LD50 value was 6 g/kg or more in both cases.

Data set [4] is described as follows: Acute toxicity, intraperitoneal administration (mice). It is filed as in vivo, ddY-strain male mice. The settings on record: for mortality: up to 1 week, n=5. From the text:
(2) Intraperitoneal administration
Each of the test drugs was suspended in a sterilized physiological saline and intraperitoneally administered to ddY-strain male mice (body weight 24 to 29 g, n=5), and a mortality up to 1 week after administration was observed.

The conditions of data set [5]: cited from earlier work.
[6] abbreviates: concluded from conversion to L-dopa.

Take `CC(C)(C)C(=O)Oc1ccc(C[C@H](N)C(=O)O)cc1O` [Compound A, 4-O-pivaloyl-L-dopa]: the “hydrolysis to L-dopa in the systemic circulation” value in data set [1] (10 mg eq./kg as L-dopa) is “rapidly and completely hydrolyzed to L-dopa”. In addition, the “conversion ratio to L-dopa” value in data set [1] (10 mg eq./kg as L-dopa, estimated) was “about 100%”. For the same compound, in data set [1] (setting [6]), the bioavailability result is reported as “high bioavailability” and the toxicity result is “low toxicity”. Besides, the “amount of L-dopa in the lumen (washing liquid) and tissue (homogenate) of the small intestine” value in data set [2] (1.47 mg Compound A vs 1.00 mg L-dopa) was “retained for a longer time with less fluctuation than that after administration of L-dopa”. Besides, the “concentration of L-dopa in the lumen and tissue of the small intestine” value in data set [2] is given as “kept low”. Besides, in data set [3], the toxicity result is “extremely low” and the LD50 at 168 h is no less than 6000 mg/kg. Besides, the mortality entry in data set [4] (1800 mg/kg) was “no case of death was observed”. In addition, the toxicity result in data set [4] (mortality up to 1 week) is “very low”.

With `CC1(C(=O)Oc2ccc(C[C@H](N)C(=O)O)cc2O)CC1` [Compound B, 4-O-(1-methylcyclopropanecarbonyl)-L-dopa], in data set [3], the toxicity entry is recorded as “extremely low” and the LD50 at 168 h was no less than 6000 mg/kg.

In data set [3], `N[C@@H](Cc1ccc(O)c(O)c1)C(=O)O` [L-dopa] had an LD50 at 168 h of 3200 mg/kg. Moreover, the mortality entry in data set [4] (1250 mg/kg) was “two of five mice were dead”; in data set [4] (1800 mg/kg), “all the test mice were dead”. In addition, in data set [5] (human, in vivo), the “blood level of L-dopa” value was “rapidly increases and falls”. The “appearance of dyskinesias after administration of L-dopa” value in data set [5] (patients, chronic L-dopa therapy) is 1 to 2 h. Moreover, the “elimination of L-dopa from blood” value in data set [5] (patients) is listed as “rapid elimination”.
